Our source for the IC50 values is patent US20230210853A1 (Halia Therapeutics, Inc., priority 2020, published 2023).

Bounds are passed on as bounds.

The target of the first test is T1, full-length recombinant human NEK7 (Homo sapiens, UniProt Q8TDX7).
T1 construct: full-length recombinant human NEK7; GST (N); purchased SignalChem N09-10G; host or cells: Sf9 insect cells (baculovirus)
T1 sequence (Q8TDX7 whole entry): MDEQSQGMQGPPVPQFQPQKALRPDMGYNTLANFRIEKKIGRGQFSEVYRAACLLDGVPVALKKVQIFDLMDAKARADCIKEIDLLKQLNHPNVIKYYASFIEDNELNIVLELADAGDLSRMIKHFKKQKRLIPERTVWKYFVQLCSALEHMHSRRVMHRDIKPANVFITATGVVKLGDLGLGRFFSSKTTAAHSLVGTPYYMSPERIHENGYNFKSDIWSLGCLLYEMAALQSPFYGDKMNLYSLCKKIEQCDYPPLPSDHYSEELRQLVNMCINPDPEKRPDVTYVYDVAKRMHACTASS
The test can be described thus: NEK7 enzymatic assay ([33P]-ATP, casein substrate). To be noted: Table 2a; recombinant human NEK7, casein substrate. Format: biochemical. On the procedure: In some embodiments, the IC50 of the compounds of Structure (I), (Ia), (Ib), (Ic), (Id), (Ie), or (If) to inhibit NEK7 was determined by the concentration of the compound required to inhibit 50% of the activity of the NEK kinase.
(§1) Casein substrate (from bovine milk, hydrolyzed and partially dephosphorylated mixture of α, β and κ caseins, obtained from Sigma Aldrich, catalogue #C4765, diluted in distilled water to a final concentration of 1 mg/mL) and full-length recombinant human NEK7 (expressed by baculovirus in Sf9 insect cells using a N-terminal GST tag, obtained from SignalChem, catalogue #N09-10G, 0.1 μg/μL) were mixed in assay buffer (20 mM Hepes pH 7.5, 10 mM MgCl2, 1 mM EGTA, 0.02% Brij35, 0.02 mg/ml BSA, 0.1 mM Na3 VO4, 2 mM DTT, 1% DMSO). Compounds of interest (serial 3-fold dilution in DMSO from 10 μM to 0.5 nM) or vehicle (1% DMSO) were dispensed into the kinase reaction mixture by Acoustic technology (Echo550, nanoliter range). After incubation at room temperature for 20 minutes, the kinase reaction was initiated by addition of [^33P]-ATP (specific activity 10 μCi/μl) and the mixture was incubated at room temperature for 2 hours. The reaction was then stopped by spotting the reaction mixture on strips of phosphocellulose P81 paper. Following washing, the radioactivity of the P81 paper was measured and kinase activity data were expressed as the percent remaining kinase activity in test samples compared to vehicle reactions. IC50 values and curve fits were obtained using Prism (GraphPad Software).
as §1, with “μg/L)” for “μg/μL)”, “Na3VO4,” for “Na3 VO4,”, “(Echo550;” for “(Echo550,”
`CC(C)(C)c1cc(NC(=O)Nc2ccc(-c3nn(C4CC(F)(F)C4)c4ncnc(N)c34)cc2F)on1` [Ia-16, 1-(4-(4-amino-1-(3,3-difluorocyclobutyl)-1H-pyrazolo[3,4-d]pyrimidin-3-yl)-2-fluorophenyl)-3-(3-(tert-butyl)isoxazol-5-yl)urea]: the IC50 was 501 to 1500 nM.

In the case of `CC(C)(C)c1cc(NC(=O)Nc2ccc(-c3nn(C4COC4)c4ncnc(N)c34)cc2)no1` [Ia-3, 1-(4-(4-amino-1-(oxetan-3-yl)-1H-pyrazolo[3,4-d]pyrimidin-3-yl)phenyl)-3-(5-(tert-butyl)isoxazol-3-yl)urea], the IC50 lay in the range of 151 to 300 nM.

Turning to `CC(C)(C)c1cc(NC(=O)Nc2ccc(-c3nn(C4CCOCC4)c4ncnc(N)c34)cc2)on1` [Ia-4, 1-(4-(4-amino-1-(tetrahydro-2H-pyran-4-yl)-1H-pyrazolo[3,4-d]pyrimidin-3-yl)phenyl)-3-(3-(tert-butyl)isoxazol-5-yl)urea], the concentration for half-maximal inhibition (IC50) was 301 to 500 nM.

For `CC(C)n1nc(-c2ccc(NC(=O)Nc3cc(C(C)(C)C)no3)cc2)c2c(N)ncnc21` [Ia-1, 1-(4-(4-amino-1-isopropyl-1H-pyrazolo[3,4-d]pyrimidin-3-yl)phenyl)-3-(3-(tert-butyl)isoxazol-5-yl)urea], the IC50 lay within 301 to 500 nM.

For `CC(C)(C)c1nnc(NC(=O)Nc2ccc(-c3nn(C4CC4)c4ncnc(N)c34)cc2F)o1` [Ia-36, 1-(4-(4-amino-1-cyclopropyl-1H-pyrazolo[3,4-d]pyrimidin-3-yl)-2-fluorophenyl)-3-(5-(tert-butyl)-1,3,4-oxadiazol-2-yl)urea], the IC50 lay within 501 to 1500 nM.

Still in this test, the particulars now being: Table 2b; recombinant human NEK7, casein substrate.
On to `Cn1nc(C(C)(C)C)cc1NC(=O)Nc1ccc(Oc2ccnc3[nH]cc(Cl)c23)cc1F` [Ib-7, 1-(3-(tert-butyl)-1-methyl-1H-pyrazol-5-yl)-3-(4-((3-chloro-1H-pyrrolo[2,3-b]pyridin-4-yl)oxy)-2-fluorophenyl)urea], for which the IC50 lay in the range of 501 to 1500 nM.

Consider `CC(C)(C)c1cc(NC(=O)NC2CCC(Oc3ccnc4[nH]cc(Cl)c34)CC2)n(-c2ccccc2)n1` (centres unmarked) [Ib-20, 1-(3-(tert-butyl)-1-phenyl-1H-pyrazol-5-yl)-3-(4-((3-chloro-1H-pyrrolo[2,3-b]pyridin-4-yl)oxy)cyclohexyl)urea], for which the IC50 was over 1500 nM.

Turning to `O=C(Nc1ccc(Oc2ccnc3[nH]cc(Cl)c23)cc1F)Nc1cc(C2CC2)nn1-c1ccccc1` [Ib-11, 1-(4-((3-chloro-1H-pyrrolo[2,3-b]pyridin-4-yl)oxy)-2-fluorophenyl)-3-(3-cyclopropyl-1-phenyl-1H-pyrazol-5-yl)urea], the half-inhibitory concentration (IC50) was in the range of 501 to 1500 nM.

As for `CN1CCC(n2nc(C(C)(C)C)cc2NC(=O)Nc2ccc(Oc3ccnc4[nH]cc(Cl)c34)cc2F)CC1` [Ib-21, 1-(3-(tert-butyl)-1-(1-methylpiperidin-4-yl)-1H-pyrazol-5-yl)-3-(4-((3-chloro-1H-pyrrolo[2,3-?]pyridin-4-yl)oxy)-2-fluorophenyl)urea], the IC50 was over 1500 nM.

Staying with this test, now noted: Table 2e; recombinant human NEK7, casein substrate.
Regarding `COc1cc(NC(=O)Nc2ccc(Oc3ccnc4[nH]cc(Cl)c34)cc2F)ccc1CN1CCN(C)CC1` [Ie-43, 1-(4-((3-chloro-1H-pyrrolo[2,3-b]pyridin-4-yl)oxy)-2-fluorophenyl)-3-(3-methoxy-4-((4-methylpiperazin-1-yl)methyl)phenyl)urea], the IC50 was over 1500 nM.

Take `Cc1cc(Oc2ccnc3[nH]c(Cl)c(Cl)c23)ccc1NC(=O)Nc1ccc(CN2CCN(C)CC2)c(C(F)(F)F)c1` [Ie-30, 1-(4-((2,3-dichloro-1H-pyrrolo[2,3-b]pyridin-4-yl)oxy)-2-methylphenyl)-3-(4-((4-methylpiperazin-1-yl)methyl)-3-(trifluoromethyl)phenyl)urea]: the IC50 was over 1500 nM.

In the case of `CN(C)C1CN(Cc2ccc(NC(=O)Nc3ccc(Oc4ccnc5[nH]cc(Cl)c45)cc3F)cc2C(F)(F)F)C1` [Ie-8, 1-(4-((3-chloro-1H-pyrrolo[2,3-b]pyridin-4-yl)oxy)-2-fluorophenyl)-3-(4-((3-(dimethylamino)azetidin-1-yl)methyl)-3-(trifluoromethyl)phenyl)urea], the IC50 was over 1500 nM.

Consider `CN1C[C@@H]2CN(Cc3ccc(NC(=O)Nc4ccc(Oc5ccnc6[nH]cc(Cl)c56)cc4F)cc3C(F)(F)F)C[C@@H]2C1` [Ie-18, 1-(4-((3-chloro-1H-pyrrolo[2,3-b]pyridin-4-yl)oxy)-2-fluorophenyl)-3-(4-(((3aR,6aS)-5-methylhexahydropyrrolo[3,4-c]pyrrol-2(1H)-yl)methyl)-3-(trifluoromethyl)phenyl)urea], for which the IC50 was over 1500 nM.

`CN1C[C@H]2CC[C@@H](C1)N2Cc1ccc(NC(=O)Nc2ccc(Oc3ccnc4[nH]cc(Cl)c34)cc2F)cc1C(F)(F)F` [Ie-33, 1-(4-((3-chloro-1H-pyrrolo[2,3-b]pyridin-4-yl)oxy)-2-fluorophenyl)-3-(4-(((1R,5S)-3-methyl-3,8-diazabicyclo[3.2.1]octan-8-yl)methyl)-3-(trifluoromethyl)phenyl)urea]: the IC50 is over 1500 nM.

Take `CN1CCN(C(=O)c2ccc(NC(=O)Nc3ccc(Oc4ccnc5[nH]cc(Cl)c45)cc3F)cc2C(F)(F)F)CC1` [Ie-15, 1-(4-((3-chloro-1H-pyrrolo[2,3-b]pyridin-4-yl)oxy)-2-fluorophenyl)-3-(4-(4-methylpiperazine-1-carbonyl)-3-(trifluoromethyl)phenyl)urea]: the IC50 is over 1500 nM.

`COc1cc(CN2CCN(C)CC2)ccc1NC(=O)Nc1ccc(Oc2ccnc3[nH]cc(Cl)c23)cc1F` [Ie-40, 1-(4-((3-chloro-1H-pyrrolo[2,3-b]pyridin-4-yl)oxy)-2-fluorophenyl)-3-(2-methoxy-4-((4-methylpiperazin-1-yl)methyl)phenyl)urea]: the IC50 was over 1500 nM.

The test is the same for the next values; noted with them: Table 2d; recombinant human NEK7, casein substrate.
As for `CN1CCN(Cc2ccc(NC(=O)Nc3ccc(-c4cn(C5CC5)c5ncnc(N)c45)cc3F)cc2C#N)CC1` [Id-53, 1-(4-(4-amino-7-cyclopropyl-7H-pyrrolo[2,3-d]pyrimidin-5-yl)-2-fluorophenyl)-3-(3-cyano-4-((4-methylpiperazin-1-yl)methyl)phenyl)urea], the IC50 is over 1500 nM.

With `CN1CCN(Cc2ccc(NC(=O)Nc3ccc(-c4nn(C5CC5)c5ccnc(N)c45)cn3)cc2C(F)(F)F)CC1` [Id-50, 1-(5-(4-amino-1-cyclopropyl-1H-pyrazolo[4,3-c]pyridin-3-yl)pyridin-2-yl)-3-(4-((4-methylpiperazin-1-yl)methyl)-3-(trifluoromethyl)phenyl)urea], the IC50 fell in the range of 301 to 500 nM.

With `CN1CCN(Cc2ccc(NC(=O)Nc3ccc(-c4cn(C5CC5)c5ncnc(N)c45)cc3F)cc2Cl)CC1` [Id-36, 1-(4-(4-amino-7-cyclopropyl-7H-pyrrolo[2,3-d]pyrimidin-5-yl)-2-fluorophenyl)-3-(3-chloro-4-((4-methylpiperazin-1-yl)methyl)phenyl)urea], the 50% inhibitory concentration (IC50) is under 150 nM.

For `CCN1CCN(Cc2ccc(NC(=O)Nc3ccc(-c4cn(C5CC5)c5ncnc(N)c45)cc3F)cc2C(F)(F)F)CC1` [Id-40, 1-(4-(4-amino-7-cyclopropyl-7H-pyrrolo[2,3-d]pyrimidin-5-yl)-2-fluorophenyl)-3-(4-((4-ethylpiperazin-1-yl)methyl)-3-(trifluoromethyl)phenyl)urea], the IC50 is under 150 nM.

Consider `Cc1cn(-c2ccc(NC(=O)Nc3ccc(-c4cn(C5CC5)c5ncnc(N)c45)cc3F)cc2C(F)(F)F)cn1` [Id-45, 1-(4-(4-amino-7-cyclopropyl-7H-pyrrolo[2,3-d]pyrimidin-5-yl)-2-fluorophenyl)-3-(4-(4-methyl-1H-imidazol-1-yl)-3-(trifluoromethyl)phenyl)urea], for which the IC50 is 501 to 1500 nM.

Consider `Cc1cc(NC(=O)Nc2ccc(-c3cn(C4CC4)c4ncnc(N)c34)cc2F)ccc1N1CCOCC1` [Id-32, 1-(4-(4-amino-7-cyclopropyl-7H-pyrrolo[2,3-d]pyrimidin-5-yl)-2-fluorophenyl)-3-(3-methyl-4-morpholinophenyl)urea], for which the IC50 is over 1500 nM.

The same test, now with this note: comparative compounds of Structure (II).
With `CC(C)n1nc(-c2ccc3c(c2F)CCN3C(=O)Cc2ccc(F)c(C(F)(F)F)c2)c2c(N)ncnc21` [II-2, 1-(5-(4-amino-1-isopropyl-1H-pyrazol[3,4-d]pyrimidin-3-yl)-4-fluoroindolin-1-yl)-2-(4-fluoro-3-(trifluoromethyl)phenyl)ethan-1-one], the IC50 lay in the range of 151 to 300 nM.
